Assay results reported in US12371428B2 (Exelixis, Inc., priority 2019, dated 2025).
Where two headings read alike, the source gives them in different places.

Legend:
[1] = molecular target: Human KDR (residues 790-1356) (Homo sapiens (Human), UniProt P35968); experiment: Human KDR kinase assay, HTRF KinEase (Example B-2); assay type: biochemical
Procedure, shortened: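 Human KDR residues 790-1356 (0.1 ng/well) in buffer with 5 mM MgCl2, 1 mM MnCl2, 1 mM DTT, biotinylated peptide substrate, ATP at Km (4.0 μM), 3% DMSO, 10 compound concentrations; 40 min, room temperature. EDTA stop, streptavidin-XL665/Eu-TK antibody HTRF read 665/620 nm; 4-parameter IC50.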

[2] = molecular target: Human MER (residues 528-999) (Homo sapiens (Human), UniProt Q12866); experiment: Human Mer kinase assay, HTRF KinEase (Example C-2); assay type: biochemical
Procedure, shortened: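 Recombinant MER 528-999 (1 ng/well) in buffer with 5 mM MgCl2 and 1 mM DTT was reacted with biotinylated peptide and ATP at Km (40 μM) for 60 min at room temperature. EDTA stop with SA-XL665 and Eu3+ TK antibody, then 665/620 nm HTRF read; IC50 from 4-parameter fit.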

[3] = molecular target: Human MET (residues 956-1390) (Homo sapiens (Human), UniProt P08581); experiment: Human Met kinase assay, HTRF KinEase (Example D-2); assay type: biochemical; details: read-out: c-Met IC50
Procedure, shortened: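 MET kinase domain (956-1390), 0.1 ng/well, in buffer with 5 mM MgCl2, 1 mM DTT and 1 mM MnCl2, phosphorylated a biotinylated peptide at ATP Km for 40 min at RT; 10 concentrations, 3% DMSO final. EDTA-stopped HTRF read after 60 min; IC50 from a 4-parameter logistic fit.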

[4] = molecular target: Met (phospho-Met, HGF-stimulated PC-3 prostate cancer cells) (Homo sapiens (Human), UniProt P08581); experiment: Met autophosphorylation ELISA in PC-3 cells (Example F); assay type: cell-based; details: cellular activity; Met autophosphorylation ELISA in PC-3 cells; read-out: c-Met IC50
Met (phospho-Met, HGF-stimulated PC-3 prostate cancer cells), sequence (P08581 25-1390): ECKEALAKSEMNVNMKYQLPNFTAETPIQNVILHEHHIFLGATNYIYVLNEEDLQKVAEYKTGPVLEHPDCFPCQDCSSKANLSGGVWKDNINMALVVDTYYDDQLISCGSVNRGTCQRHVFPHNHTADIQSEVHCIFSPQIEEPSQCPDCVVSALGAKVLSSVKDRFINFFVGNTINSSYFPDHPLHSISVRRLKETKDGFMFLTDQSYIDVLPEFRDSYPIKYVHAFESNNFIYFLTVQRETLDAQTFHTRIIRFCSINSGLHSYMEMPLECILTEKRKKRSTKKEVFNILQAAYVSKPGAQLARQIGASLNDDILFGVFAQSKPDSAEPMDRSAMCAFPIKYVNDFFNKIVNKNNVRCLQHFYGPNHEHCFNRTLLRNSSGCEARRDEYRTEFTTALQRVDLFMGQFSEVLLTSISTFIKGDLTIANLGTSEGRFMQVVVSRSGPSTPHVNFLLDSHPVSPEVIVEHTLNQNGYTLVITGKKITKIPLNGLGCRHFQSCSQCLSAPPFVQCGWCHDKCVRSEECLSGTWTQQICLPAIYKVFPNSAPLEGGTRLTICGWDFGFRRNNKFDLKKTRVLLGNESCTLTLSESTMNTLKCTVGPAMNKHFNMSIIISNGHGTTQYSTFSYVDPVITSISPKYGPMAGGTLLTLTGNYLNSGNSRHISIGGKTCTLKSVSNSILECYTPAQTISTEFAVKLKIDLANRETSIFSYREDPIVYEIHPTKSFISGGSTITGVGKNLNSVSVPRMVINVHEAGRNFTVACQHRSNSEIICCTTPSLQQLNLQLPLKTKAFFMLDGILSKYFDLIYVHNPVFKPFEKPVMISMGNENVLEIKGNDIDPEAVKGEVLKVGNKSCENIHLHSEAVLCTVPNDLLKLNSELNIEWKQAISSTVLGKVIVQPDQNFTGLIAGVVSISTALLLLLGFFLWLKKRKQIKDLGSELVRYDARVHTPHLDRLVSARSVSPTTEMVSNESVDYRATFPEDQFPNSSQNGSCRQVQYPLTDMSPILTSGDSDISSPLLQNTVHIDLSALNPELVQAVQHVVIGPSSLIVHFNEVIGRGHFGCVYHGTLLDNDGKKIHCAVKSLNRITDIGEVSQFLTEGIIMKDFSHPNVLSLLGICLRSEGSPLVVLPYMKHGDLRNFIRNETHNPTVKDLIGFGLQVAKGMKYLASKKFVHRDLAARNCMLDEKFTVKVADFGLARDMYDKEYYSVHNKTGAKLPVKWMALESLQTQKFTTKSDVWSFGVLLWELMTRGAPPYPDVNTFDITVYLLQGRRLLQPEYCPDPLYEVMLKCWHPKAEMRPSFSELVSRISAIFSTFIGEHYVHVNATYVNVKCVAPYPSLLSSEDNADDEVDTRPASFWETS
Procedure, shortened: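 IC50 values derive from a 4-parameter logistic fit of phospho-Met (panTyr) sandwich ELISA signals in PC-3 lysates, scaled between DMSO and reference-inhibitor wells. Cells, starved 3 h in serum-free medium, had 1 h compound exposure (8 doses, 0.3% DMSO) before 10 min stimulation with 100 ng/mL HGF.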

[5] = molecular target: Mer (phospho-Mer, MERTK-transfected 293A cells) (Homo sapiens (Human), UniProt Q12866); experiment: Mer autophosphorylation ELISA in transient transfected 293A cells (Example H); assay type: cell-based; details: cellular activity; Mer autophosphorylation ELISA in transient transfected 293A cells
Mer (phospho-Mer, MERTK-transfected 293A cells), sequence (Q12866 21-999): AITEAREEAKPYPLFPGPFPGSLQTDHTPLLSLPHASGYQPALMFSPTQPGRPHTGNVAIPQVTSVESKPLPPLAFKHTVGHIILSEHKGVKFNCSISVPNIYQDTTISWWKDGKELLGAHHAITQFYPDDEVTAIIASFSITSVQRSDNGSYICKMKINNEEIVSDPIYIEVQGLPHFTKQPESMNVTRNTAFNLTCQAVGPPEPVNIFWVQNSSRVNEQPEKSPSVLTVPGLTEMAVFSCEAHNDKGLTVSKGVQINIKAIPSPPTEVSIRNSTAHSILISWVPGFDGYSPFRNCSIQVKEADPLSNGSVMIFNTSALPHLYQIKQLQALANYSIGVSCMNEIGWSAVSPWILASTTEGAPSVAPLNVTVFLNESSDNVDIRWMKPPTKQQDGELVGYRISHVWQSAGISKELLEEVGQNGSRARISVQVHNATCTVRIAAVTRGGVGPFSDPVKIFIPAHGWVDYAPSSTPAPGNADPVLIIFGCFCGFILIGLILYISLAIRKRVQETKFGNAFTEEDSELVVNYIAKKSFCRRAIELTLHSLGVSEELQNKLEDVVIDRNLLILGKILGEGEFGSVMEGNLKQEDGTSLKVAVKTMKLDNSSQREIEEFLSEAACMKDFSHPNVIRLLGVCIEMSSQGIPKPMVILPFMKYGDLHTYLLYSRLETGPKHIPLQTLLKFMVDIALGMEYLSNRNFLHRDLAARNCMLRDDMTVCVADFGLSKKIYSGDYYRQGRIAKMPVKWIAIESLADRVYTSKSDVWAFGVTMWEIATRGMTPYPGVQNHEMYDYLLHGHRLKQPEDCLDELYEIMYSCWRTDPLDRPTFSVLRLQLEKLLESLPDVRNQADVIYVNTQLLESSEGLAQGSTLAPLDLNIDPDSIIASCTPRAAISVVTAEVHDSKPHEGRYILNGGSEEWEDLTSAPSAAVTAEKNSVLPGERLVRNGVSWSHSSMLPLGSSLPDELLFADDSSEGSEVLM
Procedure, shortened: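 293A cells transiently transfected with human MERTK were treated 1 h in serum-free medium with an 8-point compound dilution (0.3% DMSO final). Lysates were assayed by phospho-Mer sandwich ELISA against a phospho-Mer standard; IC50 came from a 4-parameter logistic fit, normalised to DMSO (100%) and reference-inhibitor (0%) controls.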

[6] = molecular target: KDR (phospho-KDR, VEGF165-stimulated HUVEC cells) (Homo sapiens (Human), UniProt P35968); experiment: KDR autophosphorylation ELISA in HUVEC cells (Example G); assay type: cell-based; details: cellular activity; KDR autophosphorylation ELISA in HUVEC cells
KDR (phospho-KDR, VEGF165-stimulated HUVEC cells), sequence (P35968 20-1356): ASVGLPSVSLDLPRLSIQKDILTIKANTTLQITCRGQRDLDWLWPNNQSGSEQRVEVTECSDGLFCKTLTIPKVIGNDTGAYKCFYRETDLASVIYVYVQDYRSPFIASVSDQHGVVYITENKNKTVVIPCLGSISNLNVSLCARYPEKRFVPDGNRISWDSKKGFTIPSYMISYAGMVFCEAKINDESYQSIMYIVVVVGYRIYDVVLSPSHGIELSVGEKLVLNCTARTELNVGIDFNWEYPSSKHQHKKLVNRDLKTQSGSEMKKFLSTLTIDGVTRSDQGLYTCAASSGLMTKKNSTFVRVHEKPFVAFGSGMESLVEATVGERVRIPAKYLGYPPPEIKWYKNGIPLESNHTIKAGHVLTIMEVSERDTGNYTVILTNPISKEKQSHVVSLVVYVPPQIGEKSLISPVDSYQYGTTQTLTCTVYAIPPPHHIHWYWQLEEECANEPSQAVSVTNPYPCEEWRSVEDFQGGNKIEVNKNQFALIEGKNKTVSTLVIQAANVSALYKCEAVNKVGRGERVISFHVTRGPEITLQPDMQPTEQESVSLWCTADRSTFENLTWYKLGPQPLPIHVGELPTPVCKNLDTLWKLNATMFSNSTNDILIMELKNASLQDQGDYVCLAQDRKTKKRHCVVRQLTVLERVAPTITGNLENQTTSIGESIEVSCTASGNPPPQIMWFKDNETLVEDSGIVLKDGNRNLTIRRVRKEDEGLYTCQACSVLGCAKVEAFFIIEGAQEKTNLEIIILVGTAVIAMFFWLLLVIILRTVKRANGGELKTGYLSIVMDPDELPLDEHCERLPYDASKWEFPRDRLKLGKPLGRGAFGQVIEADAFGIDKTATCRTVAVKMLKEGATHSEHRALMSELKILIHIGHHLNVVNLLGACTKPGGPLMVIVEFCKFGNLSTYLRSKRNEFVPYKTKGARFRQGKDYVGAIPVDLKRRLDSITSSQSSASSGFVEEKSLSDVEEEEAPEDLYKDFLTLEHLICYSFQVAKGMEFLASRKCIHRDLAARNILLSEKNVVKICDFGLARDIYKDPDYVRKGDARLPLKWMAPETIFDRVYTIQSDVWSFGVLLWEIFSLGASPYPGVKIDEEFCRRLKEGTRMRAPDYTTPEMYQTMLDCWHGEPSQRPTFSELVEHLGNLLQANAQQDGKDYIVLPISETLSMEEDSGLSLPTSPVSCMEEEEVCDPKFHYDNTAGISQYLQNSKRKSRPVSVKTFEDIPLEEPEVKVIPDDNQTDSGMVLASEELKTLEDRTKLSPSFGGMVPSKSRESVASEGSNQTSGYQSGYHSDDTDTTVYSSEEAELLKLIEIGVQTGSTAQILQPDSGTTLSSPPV
Procedure, shortened: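 HUVEC cells, serum-starved 24 h, were treated 1 h with an 8-point compound dilution (0.3% DMSO) and then stimulated with 100 ng/mL VEGF165 for 5 min. Phospho-KDR in lysates was quantified by sandwich ELISA against a phospho-KDR standard. IC50 from a 4-parameter logistic fit, normalised between stimulated DMSO and unstimulated controls.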

[7] = molecular target: AXL (phospho-AXL, Gas6-stimulated A-172 glioblastoma cells) (Homo sapiens (Human), UniProt P30530); experiment: AXL autophosphorylation ELISA in A-172 cells (Example E); assay type: cell-based; details: cellular activity; AXL autophosphorylation ELISA in A-172 cells; read-out: Axl IC50
AXL (phospho-AXL, Gas6-stimulated A-172 glioblastoma cells), sequence (P30530 26-894): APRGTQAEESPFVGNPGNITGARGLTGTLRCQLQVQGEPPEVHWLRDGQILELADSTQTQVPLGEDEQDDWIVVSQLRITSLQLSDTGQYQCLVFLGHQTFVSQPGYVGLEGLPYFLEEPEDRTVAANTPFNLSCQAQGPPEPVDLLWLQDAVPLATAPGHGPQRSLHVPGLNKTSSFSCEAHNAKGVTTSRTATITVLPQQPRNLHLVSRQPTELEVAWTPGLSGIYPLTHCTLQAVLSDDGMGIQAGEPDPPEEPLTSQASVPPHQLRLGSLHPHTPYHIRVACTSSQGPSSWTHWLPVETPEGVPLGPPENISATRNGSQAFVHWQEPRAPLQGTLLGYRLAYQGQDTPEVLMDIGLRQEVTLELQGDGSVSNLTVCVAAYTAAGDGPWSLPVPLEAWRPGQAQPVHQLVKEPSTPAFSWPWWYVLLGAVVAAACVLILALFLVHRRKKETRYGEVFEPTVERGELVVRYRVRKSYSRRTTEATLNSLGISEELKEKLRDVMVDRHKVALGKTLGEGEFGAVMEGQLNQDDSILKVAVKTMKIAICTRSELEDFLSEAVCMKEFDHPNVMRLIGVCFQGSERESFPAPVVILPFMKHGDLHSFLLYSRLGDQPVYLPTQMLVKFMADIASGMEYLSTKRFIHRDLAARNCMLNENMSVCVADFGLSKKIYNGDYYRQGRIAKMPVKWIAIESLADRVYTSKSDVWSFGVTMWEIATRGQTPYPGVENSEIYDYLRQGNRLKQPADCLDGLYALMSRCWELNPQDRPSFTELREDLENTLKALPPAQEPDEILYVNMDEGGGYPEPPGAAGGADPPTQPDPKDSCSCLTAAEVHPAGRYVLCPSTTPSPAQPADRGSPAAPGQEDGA
Description: A-172 cells were incubated at 37° C., 5% CO2 for 24 h and then starved for 24 h in serum-free medium. Test compounds were serially diluted to produce an 8-point dose curve in fresh serum-free medium to a final concentration of 0.3% DMSO (vehicle) and added to the cells and incubated for 1 h. […] Lysates were collected and 100 μL/well added into the human phospho-AXL DuoSet IC ELISA (R&D Systems #DYC2228-2). […] Positive control wells (100% activity) contained Gas6-stimulated, DMSO-treated cell lysates. Negative control wells (0% activity) contained Gas6-stimulated, reference inhibitor-treated cell lysates. IC50 values were calculated by nonlinear regression analysis using a 4-parameter logistic curve fit in ActivityBase XE (IDBS).

[8] = protocol of Example B-2 (other compounds)
[9] = protocol of Example C-2 (other compounds)
[10] = protocol of Example D-2 (other compounds)

Human KDR (residues 790-1356), sequence (P35968 790-1356): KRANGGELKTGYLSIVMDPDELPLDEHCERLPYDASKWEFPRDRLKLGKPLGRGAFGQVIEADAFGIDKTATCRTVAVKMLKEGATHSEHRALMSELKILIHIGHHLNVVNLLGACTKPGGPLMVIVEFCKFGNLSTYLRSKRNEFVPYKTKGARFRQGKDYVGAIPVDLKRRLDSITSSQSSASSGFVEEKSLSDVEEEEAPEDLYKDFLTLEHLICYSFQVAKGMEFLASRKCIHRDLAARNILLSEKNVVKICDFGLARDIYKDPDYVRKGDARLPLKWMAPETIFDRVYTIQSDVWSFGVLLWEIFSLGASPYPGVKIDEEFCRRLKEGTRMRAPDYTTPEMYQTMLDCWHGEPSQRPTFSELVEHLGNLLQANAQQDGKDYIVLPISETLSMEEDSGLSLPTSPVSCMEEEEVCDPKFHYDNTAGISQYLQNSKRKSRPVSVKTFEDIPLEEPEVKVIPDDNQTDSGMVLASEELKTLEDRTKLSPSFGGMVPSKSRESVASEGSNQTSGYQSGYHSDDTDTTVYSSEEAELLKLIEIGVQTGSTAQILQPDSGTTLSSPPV

| Structure (SMILES) | IC50 [1, 8] [µM] | IC50 [2, 9] [µM] | IC50 [3, 10] [µM] | IC50 [4] [µM] | IC50 [5] [µM] | IC50 [6] [µM] | IC50 [7] [µM] | IC50 ([1]; protocol of Example B-2) [µM] | IC50 ([2]; protocol of Example C-2) [µM] | IC50 ([3]; protocol of Example D-2) [µM] |
| --- | --- | --- | --- | --- | --- | --- | --- | --- | --- | --- |
| COc1cc2nccc(Oc3ccc(NC(=O)c4cnc(C(F)(F)F)c(-c5ccc(F)cc5)c4O)cc3F)c2nc1OC [Compound 79, N-[4-[(6,7-Dimethoxy-1,5-naphthyridin-4-yl)oxy]-3-fluorophenyl]-5-(4-fluorophenyl)-4-hydroxy-6-(trifluoromethyl)pyridine-3-carboxamide] | > 0.3 | < 0.1 | 0.1 to 0.3 | 0.1 to 0.3 | < 0.1 |  |  |  |  |  |
| COc1cc2nccc(Oc3ccc(NC(=O)c4cn(-c5ccccn5)cc(-c5ccc(F)cc5)c4=O)cc3F)c2nc1OC [Compound 124, N-[4-[(6,7-Dimethoxy-1,5-naphthyridin-4-yl)oxy]-3-fluorophenyl]-5-(4-fluorophenyl)-4-oxo-1-pyridin-2-ylpyridine-3-carboxamide] | > 0.3 | < 0.1 | < 0.1 | < 0.1 | < 0.1 |  |  |  |  |  |
| COc1cc2nccc(Oc3ccc(NC(=O)c4cn(-c5cnn(C)c5)c(C)c(-c5ccc(F)cc5)c4=O)cc3)c2nc1OC [Compound 141, N-[4-[(6,7-Dimethoxy-1,5-naphthyridin-4-yl)oxy]phenyl]-5-(4-fluorophenyl)-6-methyl-1-(1-methylpyrazol-4-yl)-4-oxopyridine-3-carboxamide] | > 0.3 | < 0.1 | < 0.1 | < 0.1 | < 0.1 |  |  |  |  |  |
| Cc1ncc(C(=O)Nc2ccc(Oc3ccnc4cc(Br)cnc34)cc2)c(O)c1-c1ccc(F)cc1 [Compound 149, N-[4-[(7-Bromo-1,5-naphthyridin-4-yl)oxy]phenyl]-5-(4-fluorophenyl)-4-hydroxy-6-methylpyridine-3-carboxamide] | 0.1 to 0.3 | < 0.1 | < 0.1 | < 0.1 | < 0.1 |  |  |  |  |  |
| Cc1ncc(C(=O)Nc2ccc(Oc3ccnc4cc(F)cnc34)c(F)c2)c(O)c1-c1ccc(F)cc1 [Compound 160, N-[3-Fluoro-4-[(7-fluoro-1,5-naphthyridin-4-yl)oxy]phenyl]-5-(4-fluorophenyl)-4-hydroxy-6-methylpyridine-3-carboxamide] | < 0.1 | < 0.1 | < 0.1 | < 0.1 |  | < 0.1 |  |  |  |  |
| COc1cc2nccc(Oc3ccc(NC(=O)c4c(C)nc(C)c(-c5ccc(F)cc5F)c4O)cc3F)c2nc1OC [Compound 209, 5-(2,4-Difluorophenyl)-N-[4-[(6,7-dimethoxy-1,5-naphthyridin-4-yl)oxy]-3-fluorophenyl]-4-hydroxy-2,6-dimethylpyridine-3-carboxamide] |  |  |  | < 0.1 | < 0.1 |  | < 0.1 |  |  |  |
| COc1cnc2c(Oc3ccc(NC(=O)c4c(C)nc(C)c(-c5ccc(F)cc5F)c4O)cc3F)ccnc2c1 [Compound 210, 5-(2,4-Difluorophenyl)-N-[3-fluoro-4-[(7-methoxy-1,5-naphthyridin-4-yl)oxy]phenyl]-4-hydroxy-2,6-dimethylpyridine-3-carboxamide] |  |  |  | < 0.1 | < 0.1 |  | < 0.1 |  |  |  |
| COCc1nc(C)c(-c2ccc(F)cc2F)c(O)c1C(=O)Nc1ccc(Oc2ccnc3cc(OC)cnc23)c(F)c1 [Compound 211, 5-(2,4-Difluorophenyl)-N-[3-fluoro-4-[(7-methoxy-1,5-naphthyridin-4-yl)oxy]phenyl]-4-hydroxy-2-(methoxymethyl)-6-methylpyridine-3-carboxamide] |  |  |  | < 0.1 | < 0.1 |  | < 0.1 |  |  |  |
| COCc1nc(C)c(-c2ccc(F)cc2F)c(O)c1C(=O)Nc1ccc(Oc2ccnc3cc(OC)c(OC)nc23)c(F)c1 [Compound 212, 5-(2,4-Difluorophenyl)-N-[4-[(6,7-dimethoxy-1,5-naphthyridin-4-yl)oxy]-3-fluorophenyl]-4-hydroxy-2-(methoxymethyl)-6-methylpyridine-3-carboxamide] |  |  |  | < 0.1 | < 0.1 |  | < 0.1 |  |  |  |
| CCOCc1nc(C)c(-c2ccc(F)cc2)c(O)c1C(=O)Nc1ccc(Oc2ccnc3cc(OC)c(OC)nc23)c(F)c1 [Compound 213, N-[4-[(6,7-Dimethoxy-1,5-naphthyridin-4-yl)oxy]-3-fluorophenyl]-2-(ethoxymethyl)-5-(4-fluorophenyl)-4-hydroxy-6-methylpyridine-3-carboxamide] |  |  |  | < 0.1 | < 0.1 |  | < 0.1 |  |  |  |
| COc1cc2nccc(Oc3ccc(NC(=O)c4c(C)n(C)cc(-c5ccc(F)cc5)c4=O)cc3)c2nc1OC [Compound 238, N-[4-[(6,7-Dimethoxy-1,5-naphthyridin-4-yl)oxy]phenyl]-5-(4-fluorophenyl)-1,2-dimethyl-4-oxopyridine-3-carboxamide] | > 0.3 | < 0.1 | < 0.1 | < 0.1 | < 0.1 |  |  |  |  |  |
| COc1cnc2c(Oc3ccc(NC(=O)c4c(C)ncn(-c5ccc(F)cc5)c4=O)cc3)ccnc2c1 [Compound 255, 1-(4-Fluorophenyl)-N-[4-[(7-methoxy-1,5-naphthyridin-4-yl)oxy]phenyl]-4-methyl-6-oxopyrimidine-5-carboxamide] | > 0.3 | < 0.1 | 0.1 to 0.3 | 0.1 to 0.3 | < 0.1 |  |  |  |  |  |
| COc1cc2nccc(Oc3ccc(NC(=O)c4cc(Br)c(C)n(-c5ccc(F)cc5)c4=O)cc3F)c2nc1OC [Compound 366, 5-bromo-N-[4-[(6,7-dimethoxy-1,5-naphthyridin-4-yl)oxy]-3-fluorophenyl]-1-(4-fluorophenyl)-6-methyl-2-oxopyridine-3-carboxamide] | 0.1 to 0.3 | < 0.1 | 0.1 to 0.3 | < 0.1 | < 0.1 |  |  |  |  |  |
| Cc1ccc2nccc(Oc3ccc(NC(=O)c4c(C)nc(C)c(-c5ccc(F)cc5C)c4O)cc3)c2n1 [Compound 507, 5-(4-fluoro-2-methylphenyl)-4-hydroxy-2,6-dimethyl-N-[4-[(6-methyl-1,5-naphthyridin-4-yl)oxy]phenyl]pyridine-3-carboxamide] |  |  |  |  | 0.1 to 0.3 | < 0.1 |  | > 0.3 | 0.1 to 0.3 | < 0.1 |
| Cc1cc(F)ccc1-c1c(C)ncc(C(=O)Nc2ccc(Oc3ccnc4cc(C(C)C)cnc34)cc2)c1O [Compound 597, 5-(4-Fluoro-2-methylphenyl)-4-hydroxy-6-methyl-N-[4-[(7-propan-2-yl-1,5-naphthyridin-4-yl)oxy]phenyl]pyridine-3-carboxamide] |  |  |  |  |  | 0.1 to 0.3 |  | > 0.3 | > 0.3 | 0.1 to 0.3 |
| COc1cnc2c(Oc3ccc(NC(=O)c4cn(CCO)c(C)c(-c5ccc(F)cc5)c4=O)cc3F)ccnc2c1 [Compound 621, N-[3-Fluoro-4-[(7-methoxy-1,5-naphthyridin-4-yl)oxy]phenyl]-5-(4-fluorophenyl)-1-(2-hydroxyethyl)-6-methyl-4-oxopyridine-3-carboxamide] |  |  |  |  | 0.1 to 0.3 | 0.1 to 0.3 |  | > 0.3 | < 0.1 | < 0.1 |
